Experiments:
Format in all cases: cell-based
[1] = molecular target: T1, PSEN2-APH1A γ-secretase complex (Homo sapiens, UniProt P49810+Q92542+Q96BI3+Q9NZ42); test: Aβ40 secretion by MEF cell line expressing only PSEN2-APH1A γ-secretase (APP-C99-GFP reporter); settings: 8 h, Beerse site unless otherwise indicated, read-out: IC50, Aβ40 peptides
T1 construct: expressed in transfected cells; host or cells: Psen1/2 double KO/Aph1ABC triple KO MEFs, pMSCV retroviral PSEN-IRES-APH1
Source text: Mouse embryonic fibroblast (MEF) cells deficient for the Psen and Aph1 genes (Psen1/2^−/−, Aph1ABC^−/−) were reconstituted with human PSEN1 or PSEN2 and with human APH1A or APH1B to generate four independent cell lines, each constitutively expressing exclusively one type of γ-secretase complex (Fig. S1A) ([19]). A human APP-C99-GFP reporter was introduced to enable the measurement of Aβ peptides in the conditioned media of the cells to monitor γ-secretase activity. The assay was established in a 96-well format.
Conditional Psen1/2 double KO mice were crossed with conditional Aph1ABC triple KO mice ([29], [52], [58], [59]). At embryonic day 7.5, embryos were dissected and dissociated, and cells were plated in the presence of Dulbecco’s modified Eagle’s medium (DMEM)/F12 50% fetal calf serum (FCS) (Invitrogen). Primary MEFs were immortalized by transduction with LargeT antigen. Psen1/2 double KO/Aph1ABC triple KO MEFs were generated by transduction with a Cre-GFP–expressing adenoviral vector, and GFP-positive MEFs were sorted by fluorescence-activated cell sorting analysis. Psen1/2 Aph1ABC-deficient MEFs were maintained in DMEM/f12 10% FCS. To rescue γ-secretase expression, Psen1/2 double KO/Aph1ABC triple KO MEFs were transduced using Murine Stem Cell Virus retroviral vector system (pMSCV) viral vectors (Clontech) containing the human coding sequences of the different PSEN and APH1 homologs and the zeocin selection marker. An Internal Ribosome Entry Site sequence was cloned between the coding sequences for PSEN and APH1 to ensure co-expression of both proteins. Stable transfected cell lines were selected using 500-μg/ml zeocin (Invitrogen). […]
The number of plated cells and incubation times were determined in respect to linearity of Aβ peptide secretion, the dynamic range of Aβ peptide quantification in the medium, and sensitivity to dimethylsulfoxide (DMSO). […] The cell viability was assessed using the CellTiter-Glo Luminescent assay (Promega) that measures ATP production. […]

[2] = molecular target: T2, PSEN1 S170A–APH1A γ-secretase complex (Homo sapiens, UniProt P49768, S170A); test: Aβ40 secretion, MEF cell pool restored with PSEN1 S170A–APH1A; settings: decimal comma; for IC50: PSEN1 S170A (TM3)–APH1A cell pool, N = 3 to 4, mean (95% CI)
T2 construct: expressed in transfected cells; host or cells: Psen1/2 double KO/Aph1ABC triple KO MEFs, pools without clonal selection
Method: (§1) We turned to experimental site–directed mutagenesis and selected a series of amino acids (Fig. 3) in the entrance channel for mutation to alanine. […] More importantly, they were all enzymatically active as shown by the secretion of Aβ40 in the supernatants of the cell cultures (Fig. 3B).
(§2) Conditional Psen1/2 double KO mice were crossed with conditional Aph1ABC triple KO mice ([29], [52], [58], [59]). At embryonic day 7.5, embryos were dissected and dissociated, and cells were plated in the presence of Dulbecco’s modified Eagle’s medium (DMEM)/F12 50% fetal calf serum (FCS) (Invitrogen). Primary MEFs were immortalized by transduction with LargeT antigen. Psen1/2 double KO/Aph1ABC triple KO MEFs were generated by transduction with a Cre-GFP–expressing adenoviral vector, and GFP-positive MEFs were sorted by fluorescence-activated cell sorting analysis. Psen1/2 Aph1ABC-deficient MEFs were maintained in DMEM/f12 10% FCS. To rescue γ-secretase expression, Psen1/2 double KO/Aph1ABC triple KO MEFs were transduced using Murine Stem Cell Virus retroviral vector system (pMSCV) viral vectors (Clontech) containing the human coding sequences of the different PSEN and APH1 homologs and the zeocin selection marker. An Internal Ribosome Entry Site sequence was cloned between the coding sequences for PSEN and APH1 to ensure co-expression of both proteins. Stable transfected cell lines were selected using 500-μg/ml zeocin (Invitrogen). Four different combinations were made: PSEN1 and APH1AL, PSEN1 and APH1B, PSEN2 and APH1AL, and PSEN2 and APH1B. These cell lines were transduced with pMSCV viral vectors (Clontech) expressing APP-C99-GFP-puromycin. […]
(§3) The number of plated cells and incubation times were determined in respect to linearity of Aβ peptide secretion, the dynamic range of Aβ peptide quantification in the medium, and sensitivity to dimethylsulfoxide (DMSO). […] The cell viability was assessed using the CellTiter-Glo Luminescent assay (Promega) that measures ATP production. […] We however measured five compounds at the Leuven site and noticed that absolute IC50 values were different (Fig. S2). […]

[3] = molecular target: T3, PSEN1 W165A–APH1A γ-secretase complex (Homo sapiens, UniProt P49768+Q92542+Q96BI3+Q9NZ42, W165A); test: Aβ40 secretion, MEF cell pool restored with PSEN1 W165A–APH1A; settings: PSEN1 W165A (TM3)–APH1A cell pool; N = 3 to 4; mean (95% CI); decimal comma
T3 construct: expressed in transfected cells; host or cells: Psen1/2 double KO/Aph1ABC triple KO MEFs, pools without clonal selection
Method: as §1, §2, §3

[4] = molecular target: T4, PSEN1 W165A–APH1A γ-secretase complex (Homo sapiens, UniProt P49768, W165A); test: as above; settings: decimal comma
T4 construct: expressed in transfected cells; host or cells: Psen1/2 double KO/Aph1ABC triple KO MEFs, pools without clonal selection
Method: as §1, §2, §3

How did the IC50 [1] turn out when `O=S(=O)(c1ccc(Cl)cc1)N1[C@H]2CC[C@@H]([C@H]1c1ccc(C(F)(F)F)cc1)[C@@H](O)C2` [(+)-9b] was run?
The IC50 was 1.67 µM.

And the IC50 [2]?
The IC50 was 0.132 µM.

And the IC50 [3]?
Its IC50 is 0.102 µM.

What does the source list for `C[C@H](NC(=O)Cc1cc(F)cc(F)c1)C(=O)N[C@H](C(=O)OC(C)(C)C)c1ccccc1` [DAPT]?
IC50 [2]: 0.139 µM; IC50 fold change to WT ([2]; PSEN1 S170A–APH1A cell pool): 0,821 fold; IC50 ([4]; PSEN1 W165A (TM3)–APH1A cell pool, N = 3 to 4, mean (95% CI)): 0.304 µM; IC50 fold change to WT ([4]; PSEN1 W165A–APH1A cell pool): 1,802 fold
